Activity calls are given as the source filed them. The calls are words filed in the database; no cut-off is given here.
What was measured:
[1] = system: K562; assay: Antiproliferative activity against human K562 cells after 48 hrs; format: functional, cell-based; details: K562, 48 h
[2] = Antiproliferative activity against human KB/HeLa cells after 48 hrs by XTT assay; format: functional, cell-based
[3] = system: RKO; assay: Antiproliferative activity against human RKO cells expressing p27Kip1 after 48 hrs by XTT assay; format: functional, cell-based
[4] = Antiproliferative activity against multi drug-resistant rat LT12 cells after 48 hrs by XTT assay; format: functional, cell-based; details: LT12, 48 h
[5] = system: L1210; assay: Antiproliferative activity against vincristine-resistant mouse L1210 cells after 48 hrs by XTT assay; format: functional, cell-based; details: L1210, 48 h
[6] = system: P388; assay: Antiproliferative activity against adriamycin-resistant mouse P388 cells after 48 hrs by XTT assay; format: functional, cell-based; details: P388, 48 h
[7] = Cell cycle arrest in human KB/HeLa cells assessed as accumulation at G2/M phase after 24 hrs using propidium iodide staining by FACS analysis; format: functional, cell-based
[8] = biological target: Tubulin (Sus scrofa, UniProt P02554+P02550); assay: Inhibition of pig brain tubulin polymerization after 30 mins by turbidimetry
[9] = system: PtK2; assay: Disruption of microtubule network in rat kangaroo PtK2 cells at 5 uM after 1 hr by immunofluorescence microscopic analysis; format: functional, cell-based; details: Potorous tridactylus
[10] = system: SK-OV-3; assay: Antiproliferative activity against human SKOV3 cells after 48 hrs by XTT assay; format: functional, cell-based; details: SK-OV-3, 48 h
[11] = system: SF-268; assay: Antiproliferative activity against human SF268 cells after 48 hrs by XTT assay; format: functional, cell-based; details: SF-268, 48 h
[12] = system: NCI-H460; assay: Antiproliferative activity against human NCI-H460 cells after 48 hrs by XTT assay; format: functional, cell-based; details: NCI-H460, 48 h
[13] = system: RKO; assay: Antiproliferative activity against human RKO cells after 48 hrs by XTT assay; format: functional, cell-based
[14] = Antiproliferative activity against rat LT12 cells after 48 hrs by XTT assay; format: functional, cell-based; details: LT12, 48 h
[15] = system: L1210; assay: Antiproliferative activity against mouse L1210 cells after 48 hrs by XTT assay; format: functional, cell-based; details: L1210, 48 h
[16] = system: P388; assay: Antiproliferative activity against mouse P388 cells after 48 hrs by XTT assay; format: functional, cell-based; details: P388, 48 h
[17] = biological target: Tubulin (Sus scrofa) (UniProt P02554+P02550); assay: Ratio of compound IC50 to colchicine IC50 for inhibition of pig brain tubulin polymerization
Tubulin (Sus scrofa), sequence (P02550 whole entry, looked up): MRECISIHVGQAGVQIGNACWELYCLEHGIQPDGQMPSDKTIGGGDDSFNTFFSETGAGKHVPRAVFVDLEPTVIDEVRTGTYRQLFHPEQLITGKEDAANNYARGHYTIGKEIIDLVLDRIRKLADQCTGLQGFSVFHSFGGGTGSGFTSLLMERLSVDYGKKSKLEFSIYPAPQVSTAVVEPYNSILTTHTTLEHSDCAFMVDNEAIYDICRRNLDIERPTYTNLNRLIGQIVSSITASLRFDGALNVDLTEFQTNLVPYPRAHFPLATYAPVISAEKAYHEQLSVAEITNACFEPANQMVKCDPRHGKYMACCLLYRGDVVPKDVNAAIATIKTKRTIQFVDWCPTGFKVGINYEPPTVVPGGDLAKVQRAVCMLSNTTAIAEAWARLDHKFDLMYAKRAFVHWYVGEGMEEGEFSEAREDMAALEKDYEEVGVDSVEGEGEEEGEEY
Tubulin (Sus scrofa), sequence (P02554 whole entry, looked up): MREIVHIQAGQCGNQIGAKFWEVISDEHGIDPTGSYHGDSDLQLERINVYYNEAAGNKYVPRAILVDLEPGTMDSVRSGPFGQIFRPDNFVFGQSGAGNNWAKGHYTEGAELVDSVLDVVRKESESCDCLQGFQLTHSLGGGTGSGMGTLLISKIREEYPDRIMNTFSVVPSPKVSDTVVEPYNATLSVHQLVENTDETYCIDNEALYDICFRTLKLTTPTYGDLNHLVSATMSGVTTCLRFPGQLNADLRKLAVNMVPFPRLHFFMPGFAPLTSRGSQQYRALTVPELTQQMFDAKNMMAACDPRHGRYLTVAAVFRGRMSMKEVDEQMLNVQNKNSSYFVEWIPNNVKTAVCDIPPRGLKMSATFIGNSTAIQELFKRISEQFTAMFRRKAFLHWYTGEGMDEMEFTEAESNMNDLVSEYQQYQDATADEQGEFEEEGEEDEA

[18] = Displacement of [3H]colchicine from biotin-labeled tubulin after 2 hrs by scintillation proximity assay
[19] = Displacement of [3H]paclitaxel from biotin-labeled tubulin after 2 hrs by scintillation proximity assay

| IC50 [1] | IC50 [8] | SMILES | other results |
| --- | --- | --- | --- |
| > 15000 nM | – | O=C1c2cccc(Cl)c2C(Cc2ccc(Cl)cc2)c2cccc(Cl)c21 (configuration not stated) | – |
| – | – | CC(=O)O[C@H]1C(=O)[C@@]2(C)[C@H]([C@H](OC(=O)c3ccccc3)[C@]3(O)C[C@H](OC(=O)[C@H](O)[C@@H](NC(=O)c4ccccc4)c4ccccc4)C(C)=C1C3(C)C)[C@]1(OC(C)=O)CO[C@@H]1C[C@@H]2O [PACLITAXEL] | IC50 [2]: 10 nM; IC50 [3]: > 3000 nM; IC50 [4]: 400 nM; IC50 [5]: > 5000 nM; IC50 [6]: > 5000 nM; EC50 [7]: 49 nM |
| 240 nM | 690 nM | COc1ccc(C(=O)/C=C2\c3cccc(Cl)c3C(=O)c3cccc(Cl)c32)cc1OC | – |
| 1700 nM | > 10000 nM | O=C1c2c(O)cccc2C(=Cc2ccc([N+](=O)[O-])cc2)c2cccc(O)c21 | – |
| > 30000 nM | – | O=C1c2cccc(Cl)c2/C(=C\c2ccccc2)c2cccc(Cl)c21 | – |
| 220 nM | 530 nM | COc1ccc(C(=O)/C=C2\c3cccc(Cl)c3C(=O)c3cccc(Cl)c32)cc1 | – |
| 1400 nM | 690 nM | COc1ccc(/C=C2\c3cccc(Cl)c3C(=O)c3cccc(Cl)c32)cc1 | – |
| 18000 nM | – | COc1cc(/C=C2\c3cccc(Cl)c3C(=O)c3cccc(Cl)c32)cc(OC)c1OC | – |
| 230 nM | 360 nM | COc1cc(C(=O)/C=C2\c3cccc(Cl)c3C(=O)c3cccc(Cl)c32)cc(OC)c1OC | Activity [9]: Active |
| > 15000 nM | – | O=C1c2cccc(Cl)c2C(Cc2ccc([N+](=O)[O-])cc2)c2cccc(Cl)c21 (configuration not stated) | – |
| 10000 nM | > 10000 nM | COc1cc(C=C2c3cccc(Cl)c3C(=O)c3c(Cl)cccc32)cc(OC)c1OC | – |
| 1700 nM | 510 nM | O=C(/C=C1\c2cccc(Cl)c2C(=O)c2cccc(Cl)c21)c1ccc(Br)cc1 | – |
| 1300 nM | 520 nM | COc1ccc(/C=C2/c3cccc(Cl)c3C(=O)c3cccc(Cl)c32)cc1 | – |
| 2000 nM | 4000 nM | COc1ccc(C=C2c3cccc(O)c3C(=O)c3c(O)cccc32)cc1 | – |
| > 30000 nM | – | O=C1c2cccc(Cl)c2/C(=C/c2ccccc2)c2cccc(Cl)c21 | – |
| 210 nM | 420 nM | COc1ccc(/C=C2\c3cccc(Cl)c3C(=O)c3cccc(Cl)c32)cc1O | – |
| > 80000 nM | > 2000 nM | COc1ccc(CC2c3cccc(Cl)c3C(=O)c3c(Cl)cccc32)cc1 | – |
| 3400 nM | 410 nM | CC(=O)Oc1ccc(C(=O)/C=C2\c3cccc(Cl)c3C(=O)c3cccc(Cl)c32)cc1 | – |
| 2300 nM | > 10000 nM | O=C1c2c(O)cccc2C(=Cc2ccccc2)c2cccc(O)c21 | – |
| 5100 nM | – | COc1ccc(CC2c3cccc(Cl)c3C(=O)c3cccc(Cl)c32)cc1O (configuration not stated) | – |
| 1700 nM | – | O=C1c2c(O)cccc2C(=Cc2ccc(C(F)(F)F)cc2)c2cccc(O)c21 | – |
| 2600 nM | – | O=C1c2c(O)cccc2C(=Cc2ccc(O)c(O)c2)c2cccc(O)c21 | – |
| 500 nM | 1600 nM | COc1ccc(C=C2c3cccc(Cl)c3C(=O)c3c(Cl)cccc32)c(O)c1 | – |
| 1420 nM | > 2000 nM | COc1ccc(C=C2c3cccc(OC)c3C(=O)c3c(OC)cccc32)cc1 | – |
| > 15000 nM | – | COc1cccc(CC2c3cccc(Cl)c3C(=O)c3cccc(Cl)c32)c1 (configuration not stated) | – |
| 100 nM | 360 nM | COc1ccc(C=C2c3cccc(Cl)c3C(=O)c3c(Cl)cccc32)c(OC)c1O | IC50 [2]: 130 nM; IC50 [10]: 160 nM; IC50 [11]: 140 nM; IC50 [12]: 170 nM; IC50 [13]: 160 nM; IC50 [14]: 370 nM; IC50 [3]: > 9000 nM; IC50 [4]: 170 nM; IC50 [15]: 350 nM; IC50 [5]: 230 nM; IC50 [16]: 320 nM; IC50 [6]: 460 nM; EC50 [7]: 111 nM; Ratio IC50 [17]: 4; IC50 [18]: 1170 nM; Activity [19]: inactive |

| IC50 [1] | IC50 [8] | SMILES | other results |
| --- | --- | --- | --- |
| 2000 nM | > 10000 nM | COc1ccc(C=C2c3cccc(O)c3C(=O)c3c(O)cccc32)cc1OC | – |
| 2000 nM | – | O=C1c2c(O)cccc2C(=Cc2ccc(O)cc2)c2cccc(O)c21 | – |
| – | – | COc1cc2c(c(OC)c1OC)-c1ccc(OC)c(=O)cc1[C@@H](NC(C)=O)CC2 [COLCHICINE] | IC50 [2]: 30 nM; IC50 [3]: > 10000 nM; EC50 [7]: 14 nM |
| 250 nM | 360 nM | COc1ccc(C=C2c3cccc(Cl)c3C(=O)c3c(Cl)cccc32)cc1O | IC50 [2]: 140 nM; IC50 [10]: 140 nM; IC50 [11]: 170 nM; IC50 [12]: 210 nM; IC50 [13]: 160 nM; IC50 [14]: 630 nM; IC50 [3]: > 9000 nM; IC50 [4]: 290 nM; IC50 [15]: 510 nM; IC50 [5]: 300 nM; IC50 [16]: 390 nM; IC50 [6]: 640 nM; EC50 [7]: 118 nM; Ratio IC50 [17]: 4; IC50 [18]: 1380 nM; Activity [19]: inactive |
| 270 nM | 380 nM | COc1cc(/C=C2/c3cccc(Cl)c3C(=O)c3cccc(Cl)c32)ccc1O | – |
| 290 nM | 1700 nM | O=C(/C=C1\c2cccc(Cl)c2C(=O)c2cccc(Cl)c21)c1ccccc1 | – |
| 5000 nM | > 2000 nM | COc1cccc(C=C2c3cccc(Cl)c3C(=O)c3c(Cl)cccc32)c1O | – |
| > 15000 nM | – | O=C1c2cccc(Cl)c2C(Cc2ccccc2)c2cccc(Cl)c21 (configuration not stated) | – |
| 2000 nM | 1660 nM | COc1cc(C=C2c3cccc(Cl)c3C(=O)c3c(Cl)cccc32)cc(OC)c1O | – |
| 5000 nM | 6800 nM | COc1cc(C=C2c3cccc(Cl)c3C(=O)c3c(Cl)cccc32)ccc1O | – |
| 2600 nM | > 10000 nM | COc1cc(C=C2c3cccc(O)c3C(=O)c3c(O)cccc32)cc(OC)c1OC | – |
| 610 nM | 870 nM | COc1ccc(C=C2c3cccc(Cl)c3C(=O)c3c(Cl)cccc32)cc1 | – |
| > 15000 nM | – | COc1cc(CC2c3cccc(Cl)c3C(=O)c3cccc(Cl)c32)cc(OC)c1OC (configuration not stated) | – |
| 1900 nM | – | O=C(/C=C1\c2cccc(Cl)c2C(=O)c2cccc(Cl)c21)c1ccc([N+](=O)[O-])cc1 | – |
| 1600 nM | – | O=C(/C=C1\c2cccc(Cl)c2C(=O)c2cccc(Cl)c21)c1ccc(Cl)cc1 | – |
| 720 nM | 1620 nM | COc1cc(C(=O)C=C2c3cccc(Cl)c3C(=O)c3c(Cl)cccc32)cc(OC)c1OC | – |
| – | – | CC[C@]1(O)C[C@@H]2CN(CCc3c([nH]c4ccccc34)[C@@](C(=O)OC)(c3cc4c(cc3OC)N(C)[C@H]3[C@@](O)(C(N)=O)[C@H](O)[C@]5(CC)C=CCN6CC[C@]43[C@@H]65)C2)C1 [VINDESINE] | IC50 [14]: 1 nM; IC50 [4]: 260 nM; IC50 [5]: > 5000 nM |
| 250 nM | 690 nM | COc1cccc(C(=O)/C=C2\c3cccc(Cl)c3C(=O)c3cccc(Cl)c32)c1 | – |
| 13000 nM | – | COc1ccc(CC2c3cccc(Cl)c3C(=O)c3cccc(Cl)c32)cc1 (configuration not stated) | – |
| 930 nM | 730 nM | COc1ccc(C(=O)C=C2c3cccc(Cl)c3C(=O)c3c(Cl)cccc32)cc1 | – |
| – | – | CC[C@]1(O)C[C@H]2CN(CCc3c([nH]c4ccccc34)[C@@](C(=O)OC)(c3cc4c(cc3OC)N(C=O)[C@H]3[C@@](O)(C(=O)OC)[C@H](OC(C)=O)[C@]5(CC)C=CCN6CC[C@]43[C@@H]65)C2)C1 [VINCRISTINE] | EC50 [7]: 2.4 nM |
| 1600 nM | 1200 nM | COc1ccc(CC2c3cccc(Cl)c3C(=O)c3c(Cl)cccc32)cc1O | – |
| – | – | COC(=O)Nc1nc2cc(C(=O)c3cccs3)ccc2[nH]1 [NOCODAZOLE] | IC50 [2]: 140 nM; IC50 [14]: 40 nM; IC50 [3]: > 10000 nM; IC50 [4]: 70 nM; EC50 [7]: 91 nM |
| 1500 nM | 1930 nM | COc1ccc(C=C2c3cccc(O)c3C(=O)c3c(O)cccc32)cc1O | – |
| 17300 nM | – | COc1ccc(/C=C2/c3cccc(Cl)c3C(=O)c3cccc(Cl)c32)c(OC)c1OC | – |

— ChEMBL document CHEMBL1208684 (Eur J Med Chem, 2010)
